{"source": "patent EP4356909A1", "about": "“1-(SULFONYL)-N-PHENYLPYRROLIDINE-2-CARBOXAMIDES DERIVATIVES AND USE THEREOF” (Selabtec Sciences, SLU, priority 2022, dated 2024)", "key": {"[1]": {"test_system": "NFATc activation in HEK 293T cells", "assay": "NFATc activation, 3xNFAT-luc dual-luciferase reporter assay", "type": "cell-based, human", "details": "HEK 293T cells stimulated with ionomycin, PMA and CaCl2; compounds for 2 hours; at least at 100, 50 and 20 µM (Figure 1)", "experimental": "To determine the effect of compounds of formula (I) on NFATc activation, HEK 293T cells were transfected with 3xNFAT-luc reporter gene and Renilla-luc plasmid as control of gene transfection. After 24 hours, to activate the cellular CN -NFATc signaling pathway, cells were stimulated with ionomycin (lo), PMA and CaCl2 for 4 h to raise intracellular concentration of calcium. As positive control of inhibition of CN activity, cells were treated with 1 µM of CsA 30 min prior to Io/PMA/CaCl2 stimulation. Then, cells were treated with compounds of formula (I) at several concentrations for 2 hours and light units analyzed following manufacture's protocol of the dual-luciferase reporter assay system (Figure 1, Functional effect of pair related structure compounds on NFATc activation)."}, "RD": {"test_system": "RD", "assay": "Proliferation assay, Methyl violet staining", "type": "cell-based", "details": "inhibition values; rhabdomyosarcoma cell line; 5 days of incubation; mean of 6 wells", "experimental": "(§1) Compound INK-150.46 (or SLB-605) was assayed against several cancer cell lines in proliferation assays.\n(§2) The measurements were taken using an in vitro test to measure cell growth based on Methyl violet staining after 5 days of incubation with the aforementioned drug or control vehicle (DMSO). The procedure was carried out in a 96-well plate. After 1 wash with phosphate-buffered saline (PBS), cells were stained for 20 minutes at room temperature with Methyl violet (0.5 % w/v in water). After 5 washes with PBS, and the addition of acetic acid (10% in water), plates were read in a spectrophotometer at 590 nm. All conditions were tested in 6 independent wells and results expressed as a mean of all replicates."}, "RH4": {"test_system": "RH4", "assay": "Proliferation assay, Methyl violet staining", "type": "cell-based", "details": "inhibition values; rhabdomyosarcoma cell line; 5 days of incubation; mean of 6 wells", "experimental": "as §1, §2"}, "SHSY5Y": {"test_system": "SHSY5Y", "assay": "Proliferation assay, Methyl violet staining", "type": "cell-based", "details": "inhibition values; neuroblastoma cell line; 5 days of incubation; mean of 6 wells", "experimental": "as §1, §2"}, "SKNBE2": {"test_system": "SKNBE2", "assay": "Proliferation assay, Methyl violet staining", "type": "cell-based", "details": "inhibition values; neuroblastoma cell line; 5 days of incubation; mean of 6 wells", "experimental": "as §1, §2"}, "U2OS": {"test_system": "U2OS", "assay": "Proliferation assay, Methyl violet staining", "type": "cell-based", "details": "osteosarcoma (OS) cell line; 5 days of incubation (Figure 7)", "experimental": "as §1, §2"}}, "data": [{"smiles": "Cc1c(Cl)cc(F)cc1S(=O)(=O)N1CCC[C@H]1C(=O)N(Cn1nnc2ccccc21)c1ccccc1", "note": "[INK-150.46, (S)-N-((1H-Benzo[d][1,2,3]triazol-1-yl)methyl)-1-((3-chloro-5-fluoro-2-methylphenyl)sulfonyl)-N-phenylpyrrolidine-2-carboxamide]", "values": [{"measurement": "NFATc activation", "setting": "[1]", "result": "strongly inhibits NFATc activation"}, {"measurement": "Effect over RD (%)", "setting": "RD", "result": 75, "unit": "%"}, {"measurement": "Effect over RH4 (%)", "setting": "RH4", "result": 78.1, "unit": "%"}, {"measurement": "Effect over SHSY5Y (%)", "setting": "SHSY5Y", "result": 48.8, "unit": "%"}, {"measurement": "Effect over SKNBE2 (%)", "setting": "SKNBE2", "result": 59.5, "unit": "%"}, {"measurement": "inhibitory effect over U2OS (proliferation)", "setting": "U2OS", "result": "inhibitory effect"}]}]}
